SMILES strings stand for the structures.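 Step 1: Grow cells in 96-well plates. Step 2: Expose to compound for 48 hours at 5 concentrations. Step 3: Interpolate endpoints linearly; if unreached, use highest concentration. At the GI50, growth is halved. TGI is the concentration that stops growth completely.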

Common to all, as to test: NCI anticancer screen, dose series, 48 h
The test system of assay [1] is HCT-15 colon.
In assay [2] the test system is UO-31 renal.
Assay [3] concerns IGROV1 ovarian.
For assay [4], the system named is NCI-H522 lung.
Assay [5] relates to COLO 205 colon.
Assay [6] concerns SK-MEL-28 melanoma.
In assay [7] the test system is HL-60(TB) leukemia.
Assay [8] relates to SF-268 CNS.
Assay [9] relates to SK-MEL-5 melanoma.

Consider `CC1=C(C(=O)Nc2cc(=O)n(C)c(=O)n2C)C(c2ccc([N+](=O)[O-])cc2)C(C(=O)Nc2cc(=O)n(C)c(=O)n2C)=C(C)N1`, for which the TGI in assay [1], in assay [2], in assay [3], in [4], in assay [5] and in [6] was greater than 100 µM each time. The TGI in [7] and in [8] was greater than 100 µM in each case.
As to `O=c1cc(-c2ccccc2)oc2cc(O)cc(O)c12`, the TGI in assay [1] turned out to be 64 µM; in assay [2], 43.5 µM; in assay [4] it was 33 µM; in assay [5] it was 37.9 µM; in [6], 43.5 µM; in assay [9], 23.4 µM. Also, the TGI turned out to be 48.3 µM in assay [7] and 74.8 µM in assay [8].
As to `CN(CCc1ccccn1)c1nc(=[N+](C)C)ss1`, the TGI in assay [1], in assay [2], in [3], in assay [4], in assay [5] and in [6] was greater than 100 µM throughout. Further, the TGI in assay [9], in [7] and in [8] was greater than 100 µM each time.
Turning to `COc1cc2c(cc1OC)C(OC)N(C)c1c-2ccc2cc3c(cc12)OCO3` (centres undefined), the TGI is greater than 75 µM in assay [1]; 74.7 µM in assay [2]; 3.02 µM in [3]; 0.766 µM in [4]; 2.95 µM in [5]; 33.5 µM in [6]. For the same compound, the figures for the TGI in assay [9], in [7] and in assay [8] were 6.76 µM, greater than 36.9 µM and greater than 20.9 µM, respectively.
On to `COc1ccc(Cc2cc3c(cc2OCC(=O)O)OCO3)cc1`, for which the TGI in assay [2], in assay [3], in [4], in assay [5], in [6] and in [9] was greater than 100 µM throughout. Besides, the TGI in [7] and in assay [8] was greater than 100 µM in each case.
As for `CC(=O)C1C(=O)NC(=O)C1=O` (centres undefined), the TGI in assay [1], in assay [2], in [3], in assay [4], in assay [5] and in assay [6] was greater than 100 µM in each case. In addition, the TGI in assay [9] and in [8] was greater than 100 µM throughout.
Take `CN(C)CCSc1cccc(-c2cc(-c3cccc(SCCN(C)C)c3)nc(SCCN(C)C)n2)c1`: the TGI in assay [1] was 4.67 µM; in assay [2], 27.9 µM; in assay [3], 13.8 µM; in assay [4] it was 2.98 µM; in [6] it was 3.4 µM; in assay [9], 2.96 µM. For the same compound, the TGI in [7] was determined as 3.67 µM.
With `C#CCN(N=O)C(=O)NC(CCCNC(=O)OCc1ccccc1)C(=O)OCc1ccccc1` (centres undefined), the TGI in assay [1] is greater than 100 µM; in [2] it was greater than 100 µM; in [3], greater than 100 µM; in assay [4], 27.2 µM; in assay [5] it was greater than 100 µM; in assay [6] it was greater than 100 µM. The results for the TGI in assay [9], in [7] and in assay [8] were greater than 100 µM, 42.9 µM and greater than 100 µM, respectively.
As for `CC(C)C1CC2C(=O)N(c3ccccc3)C(=O)C2c2[nH]c3ccccc3c21` (centres undefined), the TGI in assay [1] is greater than 100 µM; in assay [2] it was 80.4 µM; in assay [3], greater than 100 µM; in [6], greater than 100 µM; in assay [9], greater than 100 µM; in assay [7], 93.9 µM.
With `O=C1c2ccccc2NC1(c1ccccc1)c1c(-c2ccccc2)[nH]c2ccccc12` (centres undefined), the TGI was greater than 100 µM in assay [1]; greater than 100 µM in assay [2]; greater than 100 µM in assay [3]; 35.3 µM in [5]; greater than 100 µM in [6]; 30.3 µM in assay [7].
In the case of `CC1=C(C(=O)NCc2ccccc2)C(c2ccc([N+](=O)[O-])cc2)C(C(=O)NCc2ccccc2)=C(C)N1`, the TGI in [1] was greater than 100 µM; in assay [2], greater than 100 µM; in assay [3], greater than 100 µM; in [4], greater than 100 µM; in [5], 83.5 µM; in assay [6], greater than 100 µM. The TGI in assay [9] was greater than 100 µM; in assay [7], 49.3 µM; in assay [8], greater than 100 µM.
Turning to `CN(CC#N)C1CCCC[C@H]1O` (some centres undefined), the TGI in assay [1], in assay [2], in assay [3], in [4], in assay [5] and in [6] was greater than 100 µM each time. In addition, the TGI in assay [9], in assay [7] and in assay [8] was greater than 100 µM each time.
For `CN1C(c2ccccc2)CS(=O)(=O)CS1(=O)=O` (centres undefined), the TGI in assay [1], in assay [2], in assay [3], in [5], in assay [6] and in assay [9] was greater than 100 µM each time. Also, the TGI in [8] was greater than 100 µM.
For the compound `O=C(Cc1csc(-c2nc(CC(=O)NNc3ccccc3)cs2)n1)NNc1ccccc1`, the TGI in assay [1] was greater than 100 µM; in assay [2], greater than 100 µM; in assay [3] it was greater than 100 µM; in [4] it was 43.5 µM; in assay [5] it was 64 µM; in assay [6] it was greater than 100 µM. Moreover, the TGI in assay [9], in [7] and in [8] was greater than 100 µM in each case.
As for `CC(=O)[O-].[Mn+3].[O-]c1ccccc1C=NCCN=Cc1ccccc1[O-]`, the GI50 in assay [1] was 41.9 µM; in [2], greater than 100 µM; in [3], greater than 100 µM; in [4], 16 µM; in assay [5], greater than 100 µM; in assay [6] it was greater than 100 µM. Also, the values for the GI50 in assay [9], in assay [7] and in assay [8] were 94.8 µM, 19.2 µM and 11.1 µM, respectively. Also, the TGI in assay [1], in assay [2], in [3], in [4], in assay [5] and in assay [6] was greater than 100 µM throughout. For the same compound, the TGI in assay [9], in assay [7] and in [8] was greater than 100 µM in each case.
In the case of `NCCN.NCCN.O=C[O-].O=C[O-].[Co+3].[O-][Cl+3]([O-])([O-])[O-]`, the GI50 in assay [1], in assay [2], in assay [3], in [4], in [5] and in assay [6] was greater than 100 µM in each case. The GI50 in assay [9], in assay [7] and in assay [8] was greater than 100 µM throughout. Moreover, the TGI in assay [1], in assay [2], in assay [3], in assay [4], in assay [5] and in assay [6] was greater than 100 µM throughout. The TGI in assay [9], in assay [7] and in assay [8] was greater than 100 µM each time.
Consider `CCOC(=O)C(=O)Nc1ccc(Cl)cc1C`, for which the TGI in assay [1], in assay [2], in [3], in [4], in assay [5] and in assay [6] was greater than 100 µM throughout. Further, the TGI in assay [9], in [7] and in assay [8] was greater than 100 µM throughout.
For the compound `Cc1cc2cn3c4ccc(O)cc4[nH]c(=O)c3c2cc1C`, the GI50 in assay [1] is 0.032 µM; in assay [2] it was 0.0228 µM; in [4], 0.0164 µM; in [5], 0.174 µM; in assay [6], 0.0346 µM; in assay [9] it was 0.0272 µM. For the same compound, the TGI in assay [1] amounted to 1.18 µM; in [2] it was 1.84 µM; in assay [4], 0.0697 µM; in assay [5], 0.927 µM; in [6] it was 1.74 µM; in [9], 0.231 µM.
On to `O=S(=O)(SCc1ccccc1)C(c1ccccc1)c1ccccc1`, for which the TGI in assay [1] was greater than 100 µM; in [2] it was greater than 100 µM; in [3] it was greater than 100 µM; in [4] it was 57.8 µM; in [5] it was 36.8 µM; in assay [6], greater than 100 µM. Further, the TGI in [9] was 51.8 µM; in assay [7] it was 77 µM; in assay [8], greater than 100 µM.
In the case of `O=C(CC1(O)C(=O)Nc2ccccc21)c1ccco1` (centres undefined), the TGI in assay [1], in assay [2], in [3], in assay [4], in [5] and in assay [6] was greater than 100 µM throughout. Also, the TGI in assay [9], in [7] and in [8] was greater than 100 µM throughout.
With `COC(=O)CCC(=O)Nc1cc(Cl)ccc1Cl`, the TGI in [1], in [2], in [3], in [4], in assay [6] and in [9] was greater than 100 µM throughout. The TGI in assay [7] and in assay [8] was greater than 100 µM each time.
In the case of `CN(C)/N=C(/c1nc2ccc([N+](=O)[O-])cc2[nH]c1=O)C(O)c1ccco1` (centres undefined), the TGI in assay [1] is greater than 100 µM; in assay [2], 90.5 µM; in assay [3] it was greater than 100 µM; in assay [4], 92.2 µM; in assay [5] it was greater than 100 µM; in [6] it was greater than 100 µM. In addition, the TGI in [9], in [7] and in [8] was greater than 100 µM each time.
For `O=C(O)/C(Cl)=C(\Cl)C(=O)NC1C2CC3CC(C2)CC1C3` (centres undefined), the TGI in assay [1], in assay [2], in assay [3], in [4], in assay [5] and in assay [6] was greater than 100 µM in each case. For the same compound, the TGI in assay [9], in [7] and in assay [8] was greater than 100 µM each time.
Consider `COc1ccc(C(=O)C(c2ccc(OC)cc2)C2OC(=O)C(Cl)=C2Cl)cc1` (centres undefined), for which the TGI in assay [1], in assay [2], in [3], in assay [4], in [6] and in assay [9] was greater than 100 µM each time. Further, the TGI in assay [7] and in assay [8] was greater than 100 µM throughout.
On to `CC(=O)OC1CC2Oc3ccc(C)cc3C(C)(O2)C1=O` (centres undefined), for which the TGI in assay [1], in [2], in assay [3], in assay [4], in assay [5] and in assay [6] was greater than 100 µM each time. In addition, the TGI in assay [9] and in [7] was greater than 100 µM in each case.
For the compound `Cc1ccc(NC(=O)C(=O)CC(=O)C2CCOC2=O)c(C)c1` (centres undefined), the TGI in assay [1], in assay [2], in [3], in assay [4], in assay [5] and in [6] was greater than 100 µM each time. In addition, the TGI in [9], in assay [7] and in assay [8] was greater than 100 µM throughout.
For the compound `O=C(Cc1nc2ccccc2s1)C(=O)Nc1cccc(Cl)c1`, the TGI in [1], in assay [2], in [3], in [4], in [5] and in assay [6] was greater than 100 µM throughout. Further, the TGI in assay [9], in assay [7] and in assay [8] was greater than 100 µM in each case.
Regarding `COc1cc(O)c2c(c1)C(=O)C=C(Cl)C2=O`, the TGI in assay [1], in [2], in assay [3], in assay [4], in [5] and in assay [6] was greater than 100 µM in each case. Besides, the TGI in [9], in [7] and in assay [8] was greater than 100 µM in each case.
Turning to `O/N=C1/C(=C/c2ccc(Oc3ccccc3)cc2)CCCC1C(NO)c1ccc(Oc2ccccc2)cc1` (centres undefined), the TGI in assay [1] is greater than 100 µM; in assay [2], 76.4 µM; in assay [3] it was greater than 100 µM; in assay [5], 35.8 µM; in assay [6] it was greater than 100 µM; in assay [9] it was 36.7 µM. Also, the TGI in assay [7] was 25.6 µM; in assay [8] it was greater than 100 µM.

Source of the values: PubChem BioAssay (NCI).
